Data from patent publication US4267184A, “Antiinflammatory 4,5-diaryl-2-(substituted-thio)pyrroles and their corresponding sulfoxides and sulfones” (E. I. Du Pont de Nemours and Company, priority 1980, dated 1981).

Assays:
[1] = tested on: Adjuvant-Induced Arthritis in Rats; test: Established Adjuvant-Induced Arthritis in Rats; type: in vivo, Charles River Lewis male rats; settings: Rattus norvegicus; for ED50: 168 h, oral gavage daily for 7 days, ED50% decrease from control paw volume
Description: A procedure for detecting and comparing the antiinflammatory activity of compounds in this series and standard drugs for which there is a good correlation with human efficacy is the adjuvant-induced arthritis test in rats.
(§1) The test procedures employed for determining antiinflammatory and analgesic activity are described below with test data included in Tables VII and VIII.
Charles River Lewis male rats (130-150 grams) are injected subcutaneously in plantar area of the right hind paw with 0.1 ml of adjuvant (Difco heat-killed, lyophilized Mycobacterium butyricum suspended in mineral oil 5 mg/ml). 20 Non-arthritic controls are injected with mineral oil. The animals are held for 2 weeks to allow development of arthritis. Paw volumes (uninjected, left hind paw) are measured and the adjuvant injected rats are culled and distributed to treatment groups of 10 of equal disease severity. Non-arthritic controls are distributed to 2 groups of 10. The rats are given oral doses of compound or PVA-Acacia (Polyvinyl Alcohol 1%, Gum Acacia, U.S.P. 5%, Methylparaben 0.5%) (10 ml/kg) by gavage on that day and on the 6 following days. One day after the last dose the paw volumes (uninjected, left hind paw) are measured using a Ugo Basile Volume Differential Meter Model 7101. [formula]
Dose-response regression lines of the % decrease are plotted on semi-log paper by visual fit and the ED50% decrease from control paw volume is determined by inspection.

[2] = tested on: phenylquinone writhing in mice; test: Phenylquinone Writhing Test (analgesic activity); type: in vivo, female white mice; settings: Mus musculus, oral, phenylquinone i.p., effective analgesic dose for 50% of the mice
Description: A procedure for detecting and comparing the analgesic activity of compounds in this series and standard drugs for which there is a good correlation with human efficacy is the phenylquinone writhing test.
as §1
The phenylquinone writhing test, modified from Siegmund, et al., Proc. Soc. Exp. Biol. Med. 95, 729 (1957), was employed. A test compound suspended in 1% methylcellulose was given orally to fasted (17-21 hours) female white mice, 5-20 animals per double blind test. Aqueous (0.01% phenyl-p-benzoquinone) phenylquinone was injected intraperitoneally at 24 minutes later using 0.20 ml per mouse. […] The effective analgesic dose for 50% of the mice (ED50) was calculated by the moving average method of Thompson, W. R., Bact. Rev. 11, 115-145 (1947).

[3] = Table VII, oral, read-out: percent reduction in paw volume at the indicated dose

Row | Structure (SMILES) | ED50 ([2]; Table VII) | ED50 ([1]; Table VII) | also measured
1 | CCOc1ccc(-c2[nH]c([S+]([O-])C(F)(F)F)cc2-c2ccc(F)cc2)cc1 (stereo not drawn) [Example 61] | > 130 mg/kg |  | inhibition in vivo at 9 mg/kg ([1]; Table VII, oral, dose 9 mg/kg, read-out: percent reduction in paw volume at the indicated dose): 14%
2 | CS(=O)(=O)c1cc(-c2ccc(Cl)cc2)c(-c2ccc(Cl)cc2)[nH]1 [Example 62] | > 108 mg/kg | 1.5 mg/kg | 
3 | CCOc1ccc(-c2[nH]c(S(C)(=O)=O)cc2-c2ccc(F)cc2)cc1 [Example 63] | > 108 mg/kg |  | inhibition in vivo at 25 mg/kg ([1]; Table VII, oral, dose 25 mg/kg, read-out: percent reduction in paw volume at the indicated dose): 34%
4 | CS(=O)(=O)c1cc(-c2ccc(F)cc2)c(-c2ccc(F)cc2)[nH]1 [Example 64] | > 108 mg/kg |  | inhibition in vivo at 27 mg/kg [1, 3]: 25%
5 | CCS(=O)(=O)c1cc(-c2ccc(Cl)cc2)c(-c2ccc(Cl)cc2)[nH]1 [Example 65] | > 108 mg/kg |  | inhibition in vivo at 27 mg/kg [1, 3]: 23%
6 | CS(=O)(=O)c1cc(-c2ccc(Cl)cc2)c(-c2ccc(F)cc2)[nH]1 [Example 66] | > 135 mg/kg | 27 mg/kg | 
7 | CS(=O)(=O)c1cc(-c2ccc(F)cc2)c(-c2ccc(Cl)cc2)[nH]1 [Example 67] | 38 mg/kg | 50 mg/kg | 
8 | COc1ccc(-c2[nH]c(S(C)(=O)=O)cc2-c2ccc(F)cc2)cc1 [Example 68] | 18 mg/kg |  | inhibition in vivo at 27 mg/kg [1, 3]: 34%
9 | COc1ccc(-c2[nH]c(S(C)(=O)=O)cc2-c2ccc(Cl)cc2)cc1 [Example 69] | 38 mg/kg | 13 mg/kg | 
10 | CS(=O)(=O)c1cc(-c2ccc(Cl)cc2)c(-c2ccccc2)[nH]1 [Example 71] | > 108 mg/kg |  | inhibition in vivo at 27 mg/kg [1, 3]: 23%
11 | Cc1ccc(-c2cc(S(C)(=O)=O)[nH]c2-c2ccc(C)cc2)cc1 [Example 72] | 7.2 mg/kg | 90 mg/kg | 
12 | CC(=O)n1c(SC(F)(F)F)cc(-c2ccc(F)cc2)c1-c1ccc(F)cc1 [Example 73, 1-Acetyl-4,5-bis(4-fluorophenyl)-2-(trifluoromethylthio)pyrrole] |  |  | ED50 ([1]; Table VIII): 4 mg/kg; ED50 ([2]; Table VIII): > 108 mg/kg
13 | Cn1c(SC(F)(F)F)cc(-c2ccc(F)cc2)c1-c1ccc(F)cc1 [Example 74, 1-Methyl-4,5-bis(4-fluorophenyl)-2-(trifluoromethylthio)pyrrole] |  |  | ED50 ([1]; Table VIII): 1.1 mg/kg; ED50 ([2]; Table VIII): > 108 mg/kg
14 | CCOC(=O)n1c(SC(F)(F)F)cc(-c2ccc(F)cc2)c1-c1ccc(F)cc1 [Example 75, 1-Ethoxycarbonyl-4,5-bis(4-fluorophenyl)-2-(trifluoromethylthio)pyrrole] |  |  | ED50 ([1]; Table VIII): 1.9 mg/kg; ED50 ([2]; Table VIII): > 108 mg/kg
15 | O=C(c1ccccc1)n1c(SC(F)(F)F)cc(-c2ccc(F)cc2)c1-c1ccc(F)cc1 [Example 76, 1-Benzoyl-4,5-bis(4-fluorophenyl)-2-(trifluoromethylthio)pyrrole] |  |  | ED50 ([1]; Table VIII): 6.6 mg/kg; ED50 ([2]; Table VIII): > 108 mg/kg
